Where a name gives a salt, the structure may show the parent alone.
Experiments:
Settings in all cases: averaged IC50
[1] = target: GST-tagged recombinant human TYRO3 kinase domain (Homo sapiens (Human), UniProt Q06418); experiment: TYRO3 Enzyme Assay (LanthaScreen Eu Kinase Binding, TR-FRET)
In short: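 LanthaScreen Eu binding (tracer displacement) format read by TR-FRET after 60 min at 22 °C. Emission ratio converted to percent of control; IC50 taken where a 4-parameter logistic fit crosses 50 POC.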

[2] = target: His-tagged recombinant human AXL cytoplasmic domain (Homo sapiens (Human), UniProt P30530); experiment: AXL Enzyme Assay (LanthaScreen Eu Kinase Binding, TR-FRET)
In short: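 Compound displacement measured by TR-FRET after 60 min at 22 °C, using Eu-based LanthaScreen binding technology. Ratiometric emission converted to percent of control, fitted to a 4-parameter logistic curve, with IC50 at 50 POC.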

[3] = target: His-tagged recombinant human MER cytoplasmic domain (Homo sapiens (Human), UniProt Q12866); experiment: MER Enzyme Assay (LanthaScreen Eu Kinase Binding, TR-FRET)
In short: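 Percent of control, derived from ratiometric TR-FRET emission, was fitted to a 4-parameter logistic curve and IC50 taken at 50 POC. Binding was read after 60 min at 22 °C using Eu-based LanthaScreen technology and recombinant His-tagged MER cytoplasmic domain.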

Sequence of His-tagged recombinant human MER cytoplasmic domain (Q12866 527-999): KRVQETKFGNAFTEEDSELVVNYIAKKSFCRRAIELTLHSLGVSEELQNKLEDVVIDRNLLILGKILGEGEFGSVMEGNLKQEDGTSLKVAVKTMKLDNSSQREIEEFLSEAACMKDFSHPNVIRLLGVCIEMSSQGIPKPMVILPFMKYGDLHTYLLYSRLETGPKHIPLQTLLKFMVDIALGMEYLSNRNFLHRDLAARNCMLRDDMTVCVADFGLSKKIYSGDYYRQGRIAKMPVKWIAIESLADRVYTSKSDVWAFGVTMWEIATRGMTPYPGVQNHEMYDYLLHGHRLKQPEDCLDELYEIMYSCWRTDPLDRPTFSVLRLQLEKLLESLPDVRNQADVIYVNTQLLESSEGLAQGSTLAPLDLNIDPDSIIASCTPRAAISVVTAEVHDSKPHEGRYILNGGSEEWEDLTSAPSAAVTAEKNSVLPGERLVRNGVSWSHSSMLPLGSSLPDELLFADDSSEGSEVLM
Sequence of GST-tagged recombinant human TYRO3 kinase domain (Q06418 518-790): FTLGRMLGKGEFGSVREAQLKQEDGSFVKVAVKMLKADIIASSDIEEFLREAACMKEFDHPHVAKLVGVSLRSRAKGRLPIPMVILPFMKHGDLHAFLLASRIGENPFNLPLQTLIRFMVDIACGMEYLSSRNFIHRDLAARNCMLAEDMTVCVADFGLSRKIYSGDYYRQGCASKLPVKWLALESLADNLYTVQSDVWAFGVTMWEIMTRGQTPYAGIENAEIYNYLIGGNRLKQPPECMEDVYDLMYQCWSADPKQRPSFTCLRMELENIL
Sequence of His-tagged recombinant human AXL cytoplasmic domain (P30530 473-894): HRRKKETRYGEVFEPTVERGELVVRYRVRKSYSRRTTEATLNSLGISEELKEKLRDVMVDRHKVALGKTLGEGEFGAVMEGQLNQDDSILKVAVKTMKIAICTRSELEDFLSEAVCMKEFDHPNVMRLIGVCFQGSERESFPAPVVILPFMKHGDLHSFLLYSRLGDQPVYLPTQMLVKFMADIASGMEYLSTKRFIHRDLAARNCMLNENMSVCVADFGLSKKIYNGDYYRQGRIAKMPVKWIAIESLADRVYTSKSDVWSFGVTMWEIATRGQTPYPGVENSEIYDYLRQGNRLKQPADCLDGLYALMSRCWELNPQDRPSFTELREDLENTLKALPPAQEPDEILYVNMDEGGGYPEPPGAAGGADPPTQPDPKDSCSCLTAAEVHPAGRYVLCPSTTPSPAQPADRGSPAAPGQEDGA

Row | IC50 [1] | IC50 [2] | IC50 [3] | SMILES
1 | 10 to 100 nM | < 10 nM | < 10 nM | CCNc1cc2c(cn1)c(-c1ccc(CN3CCN(C)CC3)cc1)nn2[C@H]1CC[C@@H](Oc2nccc(C(F)(F)F)c2F)CC1 [Example 261, N-ethyl-1-((1s,4s)-4-((3-fluoro-4-(tnfluoromethyl)pyridin-2-yl)oxy)cyclohexyl)-3-(4-((4-methylpiperazin-1-yl)methyl)phenyl)-1H-pyrazolo[4,3-c]pyridin-6-amine]
2 | 10 to 100 nM | < 10 nM | < 10 nM | CNc1cc2c(cn1)c(-c1cnn(C)c1)nn2[C@H]1CC[C@@H](Oc2cnn(C)c2C(F)(F)F)CC1 [Example 262, N-methyl-3-(1-methyl-1H-pyrazol-4-yl)-1-((1s,4s)-4-((1-methyl-5-(trifluoromethyl)-1H-pyrazol-4-yl)oxy)cyclohexyl)-1H-pyrazolo[4,3-c]pyridin-6-amine]
3 | 100 to 1000 nM | < 10 nM | < 10 nM | CNc1cc2c(cn1)c(-c1cnn(C(C)(C)C#N)c1)nn2[C@H]1CC[C@@H](Oc2cnn(C)c2C(F)(F)F)CC1 [Example 263, 2-methyl-2-(4-(1-((1s,4s)-4-((1-methyl-5-(trifluoromethyl)-1H-pyrazol-4-yl)oxy)cyclohexyl)-6-(methylamino)-1H-pyrazolo[4,3-c]pyridin-3-yl)-1H-pyrazol-1-yl)propanenitrile]
4 | 10 to 100 nM | < 10 nM | < 10 nM | CNc1cc2c(cn1)c(-c1ccc(CN3CCN(C)CC3)cc1)nn2[C@H]1CC[C@@H](Oc2cnn(C)c2C(F)(F)F)CC1 [Example 264, N-methyl-1-((1s,4s)-4-((1-methyl-5-(trifluoromethyl)-1H-pyrazol-4-yl)oxy)cyclohexyl)-3-(4-((4-methylpiperazin-1-yl)methyl)phenyl)-1H-pyrazolo[4,3-c]pyridin-6-amine]
5 | 10 to 100 nM | < 10 nM | < 10 nM | CCNc1cc2c(cn1)c(-c1cnn(CC(C)(C)CO)c1)nn2[C@H]1CC[C@@H](Oc2nccc(C(F)(F)F)c2F)CC1 [Example 271, 3-(4-(6-(ethylamino)-1-((1s,4s)-4-((3-fluoro-4-(trifluoromethyl)pyridin-2-yl)oxy)cyclohexyl)-1H-pyrazolo[4,3-c]pyridin-3-yl)-1H-pyrazol-1-yl)-2,2-dimethylpropan-1-ol hydrochloride]
6 | 10 to 100 nM | < 10 nM | < 10 nM | CCNc1cc2c(cn1)c(-c1cnn([C@H]3CC[C@H](O)CC3)c1)nn2[C@H]1CC[C@@H](Oc2nccc(C(F)(F)F)c2F)CC1 [Example 272, (1R,4r)-4-(4-(6-(ethylamino)-1-((1s,4S)-4-((3-fluoro-4-(trifluoromethyl)pyridin-2-yl)oxy)cyclohexyl)-1H-pyrazolo[4,3-c]pyridin-3-yl)-1H-pyrazol-1-yl)cyclohexan-1-ol]
7 | < 10 nM | < 10 nM | < 10 nM | CCNc1cc2c(cn1)c(-c1cnn(C)c1)nn2[C@H]1CC[C@@H](Oc2cn(C)nc2C(F)(F)F)CC1 [Example 279, N-ethyl-3-(1-methyl-1H-pyrazol-4-yl)-1-((1s,4s)-4-((1-methyl-3-(trifluoromethyl)-1H-pyrazol-4-yl)oxy)cyclohexyl)-1H-pyrazolo[4,3-c]pyridin-6-amine]
8 | < 10 nM | < 10 nM | < 10 nM | CCNc1cc2c(cn1)c(-c1cnn(C(C)(C)C#N)c1)nn2[C@H]1CC[C@@H](Oc2cn(C)nc2C(F)(F)F)CC1 [Example 280, 2-(4-(6-(ethylamino)-1-((1s,4s)-4-((1-methyl-3-(trifluoromethyl)-1H-pyrazol-4-yl)oxy)cyclohexyl)-1H-pyrazolo[4,3-c]pyridin-3-yl)-1H-pyrazol-1-yl)-2-methylpropanenitrile]
9 | < 10 nM | < 10 nM | < 10 nM | CCNc1cc2c(cn1)c(-c1cnn(C[C@@H](O)CO)c1)nn2[C@H]1CC[C@@H](Oc2cn(C)nc2C(F)(F)F)CC1 [Example 283, ®-3-(4-(6-(ethylamino)-1-((1s,4S)-4-((1-methyl-3-(trifluoromethyl)-1H-pyrazol-4-yl)oxy)cyclohexyl)-1H-pyrazolo[4,3-c]pyridin-3-yl)-1H-pyrazol-1-yl)propane-1,2-diol]
10 | < 10 nM | < 10 nM | < 10 nM | CNc1cc2c(cn1)c(-c1ccc(S(C)(=O)=O)cc1)nn2[C@H]1CC[C@@H](Oc2cn(C)nc2C(F)(F)F)CC1 [Example 284, N-methyl-1-((1s,4s)-4-((1-methyl-3-(trifluoromethyl)-1H-pyrazol-4-yl)oxy)cyclohexyl)-3-(4-(methylsulfonyl)phenyl)-1H-pyrazolo[4,3-c]pyridin-6-amine]
11 | < 10 nM | < 10 nM | < 10 nM | CNc1cc2c(cn1)c(-c1ccc(CN3CCN(C)CC3)cc1)nn2[C@H]1CC[C@@H](Oc2cn(C)nc2C(F)(F)F)CC1 [Example 285, N-methyl-1-((1s,4s)-4-((1-methyl-3-(trifluoromethyl)-1H-pyrazol-4-yl)oxy)cyclohexyl)-3-(4-((4-methylpiperazin-1-yl)methyl)phenyl)-1H-pyrazolo[4,3-c]pyridin-6-amine]
12 | < 10 nM | < 10 nM | < 10 nM | CNc1cc2c(cn1)c(-c1ccc3c(c1)CN(C)C3=O)nn2[C@H]1CC[C@@H](Oc2cn(C)nc2C(F)(F)F)CC1 [Example 286, 2-methyl-5-(1-((1s,4s)-4-((1-methyl-3-(trifluoromethyl)-1H-pyrazol-4-yl)oxy)cyclohexyl)-6-(methylamino)-1H-pyrazolo[4,3-c]pyridin-3-yl)isoindolin-1-one]
13 | < 10 nM | < 10 nM | < 10 nM | CCNc1cc2c(cn1)c(-c1ccc3c(c1)CNC3=O)nn2[C@H]1CC[C@@H](Oc2cn(C)nc2C(F)(F)F)CC1 [Example 287]
14 | < 10 nM | < 10 nM | < 10 nM | CCNc1cc2c(cn1)c(-c1ccc3c(c1)CN(C)C3=O)nn2[C@H]1CC[C@@H](Oc2cn(C)nc2C(F)(F)F)CC1 [Example 288, 5-(6-(ethylamino)-1-((1s,4s)-4((1-methyl-3-(trifluoromethyl)-1H-pyrazol-4-yl)oxy)cyclohexyl)-1H-pyrazolo[4,3-c]pyridin-3-yl)-2-methylisoindolin-1-one]
15 | < 10 nM | < 10 nM | < 10 nM | CCNc1cc2c(cn1)c(-c1ccc(CN3CCN(C)CC3)cc1)nn2[C@H]1CC[C@@H](Oc2cn(C)nc2C(F)(F)F)CC1 [Example 289, N-ethyl-1-((1s,4s)-4-((1-methyl-3-(trifluoromethyl)-1H-pyrazol-4-yl)oxy)cyclohexyl)-3-(4-((4-methylpiperazin-1-yl)methyl)phenyl)-1H-pyrazolo[4,3-c]pyridin-6-amine]
16 | < 10 nM | < 10 nM | < 10 nM | CCNc1cc2c(cn1)c(-c1ccc(S(C)(=O)=O)cc1)nn2[C@H]1CC[C@@H](Oc2cn(C)nc2C(F)(F)F)CC1 [Example 290, N-ethyl-1-((1s,4s)-4-((1-methyl-3-(trifluoromethyl)-1H-pyrazol-4-yl)oxy)cyclohexyl)-3-(4-(methylsulfonyl)phenyl)-1H-pyrazolo[4,3-c]pyridin-6-amine]
17 | 10 to 100 nM | < 10 nM | < 10 nM | CCNc1cc2c(cn1)c(-c1ccc(CN3CCN(C)CC3)cc1)nn2[C@H]1CC[C@@H](Oc2cnn(C)c2C(F)(F)F)CC1 [Example 293, N-ethyl-1-((1s,4s)-4-((1-methyl-5-(trifluoromethyl)-1H-pyrazol-4-yl)oxy)cyclohexyl)-3-(4-((4-methylpiperazin-1-yl)methyl)phenyl)-1H-pyrazolo[4,3-c]pyridin-6-amine]
18 | 10 to 100 nM | < 10 nM | < 10 nM | CCNc1cc2c(cn1)c(-c1ccn(C)c(=O)c1)nn2[C@H]1CC[C@@H](Oc2nccc(C(F)(F)F)c2F)CC1 [Example 297, 4-(6-(ethylamino)-1-((1s,4s)-4-((3-fluoro-4-(trifluoromethyl)pyridin-2-yl)oxy)cyclohexyl)-1H-pyrazolo[4,3-c]pyridin-3-yl)-1-methylpyridin-2(1H)-one]
19 | 10 to 100 nM | < 10 nM | < 10 nM | CCNc1cc2c(cn1)c(-c1ccc(=O)n(C)c1)nn2[C@H]1CC[C@@H](Oc2nccc(C(F)(F)F)c2F)CC1 [Example 298, 5-(6-(ethylamino)-1-((1s,4s)-4-((3-fluoro-4-(trifluoromethyl)pyridin-2-yl)oxy)cyclohexyl)-1H-pyrazolo[4,3-c]pyridin-3-yl)-1-methylpyridin-2(1H)-one]
20 | 10 to 100 nM | < 10 nM | < 10 nM | CCNc1cc2c(cn1)c(-c1cnn(C(C)(C)CO)c1)nn2[C@H]1CC[C@@H](Oc2nccc(C(F)(F)F)c2F)CC1 [Example 299, 2-(4-(6-(ethylamino)-1-((1s,4s)-4-((3-fluoro-4-(trifluoromethyl)pyridin-2-yl)oxy)cyclohexyl)-1H-pyrazolo[4,3-c]pyridin-3-yl)-1H-pyrazol-1-yl)-2-methylpropan-1-ol]
21 | 10 to 100 nM | < 10 nM | < 10 nM | CCNc1cc2c(cn1)c(-c1cnn(CC(C)(C)O)c1)nn2[C@H]1CC[C@@H](Oc2nccc(C(F)(F)F)c2F)CC1 [Example 300, 1-(4-(6-(ethylamino)-1-((1s,4s)-4-((3-fluoro-4-(trifluoromethyl)pyridin-2-yl)oxy)cyclohexyl)-1H-pyrazolo[4,3-c]pyridin-3-yl)-1H-pyrazol-1-yl)-2-methylpropan-2-ol]

From patent US11247990B1, “Bicyclic fused pyridine compounds as inhibitors of TAM kinases” (ARRAY BIOPHARMA INC., priority 2017, dated 2022)
